According to the NIST ThermoML archive (doi:10.1021/je100972k):
Values joined by “and” are separate entries in the source; they are usually repeats but may differ in a detail not shown here. Identical values can stand only once. Numbers after ± are expanded uncertainties.

Conditions: Crystal

[F-].[F-].[F-].[F-].[Zr+4] [zirconium(IV) fluoride]
Conditions	vapor or sublimation pressure
685 K	8.13e-06 ± 2.1e-06 kPa
689 K	8.13e-06 ± 2.1e-06 kPa
690 K	1.05e-05 ± 2.7e-06 kPa
693 K	1.05e-05 ± 2.7e-06 kPa and 1.62e-05 ± 4.1e-06 kPa
698.5 K	1.62e-05 ± 4.1e-06 kPa
699 K	1.55e-05 ± 3.9e-06 kPa and 2.4e-05 ± 6.1e-06 kPa
704 K	1.2e-05 ± 3.1e-06 kPa
705 K	3.24e-05 ± 8.2e-06 kPa
706.5 K	2.4e-05 ± 6.1e-06 kPa
707 K	3.09e-05 ± 7.8e-06 kPa
709 K	3.09e-05 ± 7.8e-06 kPa
709.5 K	2.82e-05 ± 7.1e-06 kPa
711 K	4.9e-05 ± 1.2e-05 kPa
711.5 K	1.62e-05 ± 4.1e-06 kPa
712.5 K	2.4e-05 ± 6.1e-06 kPa
713 K	4.17e-05 ± 1e-05 kPa
713.5 K	3.24e-05 ± 8.2e-06 kPa
715 K	2.04e-05 ± 5.2e-06 kPa
717 K	6.46e-05 ± 1.6e-05 kPa and 2.4e-05 ± 6.1e-06 kPa
719 K	3.63e-05 ± 9.1e-06 kPa
720 K	4.9e-05 ± 1.2e-05 kPa and 3.47e-05 ± 8.7e-06 kPa and 2.82e-05 ± 7.1e-06 kPa
720.5 K	5.25e-05 ± 1.3e-05 kPa
721 K	3.24e-05 ± 8.2e-06 kPa
723.5 K	4.9e-05 ± 1.2e-05 kPa
724 K	6.46e-05 ± 1.6e-05 kPa and 4.68e-05 ± 1.2e-05 kPa
724.5 K	4.68e-05 ± 1.2e-05 kPa
725.5 K	4.07e-05 ± 1e-05 kPa and 3.63e-05 ± 9.1e-06 kPa
726.5 K	4.07e-05 ± 1e-05 kPa
728.5 K	9.33e-05 ± 2.3e-05 kPa and 0.000112 ± 2.8e-05 kPa
729 K	6.46e-05 ± 1.6e-05 kPa
729.5 K	8.91e-05 ± 2.2e-05 kPa
730 K	8.32e-05 ± 2.1e-05 kPa and 6.92e-05 ± 1.7e-05 kPa
731.5 K	5.62e-05 ± 1.4e-05 kPa and 4.9e-05 ± 1.2e-05 kPa
732 K	6.92e-05 ± 1.7e-05 kPa and 5.62e-05 ± 1.4e-05 kPa
734.5 K	0.000112 ± 2.8e-05 kPa
735 K	8.91e-05 ± 2.2e-05 kPa
735.5 K	0.000162 ± 4.1e-05 kPa
736 K	0.00012 ± 3e-05 kPa and 9.33e-05 ± 2.3e-05 kPa
737 K	0.000117 ± 2.9e-05 kPa and 8.13e-05 ± 2e-05 kPa and 6.46e-05 ± 1.6e-05 kPa
737.5 K	0.000145 ± 3.6e-05 kPa and 7.24e-05 ± 1.8e-05 kPa
739.5 K	0.000135 ± 3.4e-05 kPa
740.5 K	0.000155 ± 3.9e-05 kPa and 9.33e-05 ± 2.3e-05 kPa
741 K	0.000112 ± 2.8e-05 kPa
742 K	0.000219 ± 5.5e-05 kPa
743 K	0.000141 ± 3.5e-05 kPa and 0.000105 ± 2.6e-05 kPa and 8.91e-05 ± 2.2e-05 kPa
743.5 K	0.000162 ± 4.1e-05 kPa and 9.77e-05 ± 2.4e-05 kPa
746.5 K	0.000224 ± 5.6e-05 kPa and 0.000209 ± 5.2e-05 kPa and 0.000204 ± 5.1e-05 kPa
748 K	0.000162 ± 4.1e-05 kPa
748.5 K	0.000282 ± 7.1e-05 kPa and 0.00012 ± 3e-05 kPa
749 K	0.000151 ± 3.8e-05 kPa and 0.000129 ± 3.2e-05 kPa
750 K	0.000145 ± 3.6e-05 kPa
750.5 K	0.000209 ± 5.2e-05 kPa
751 K	0.00024 ± 6e-05 kPa
751.5 K	0.000251 ± 6.3e-05 kPa
753 K	0.000209 ± 5.2e-05 kPa and 0.000158 ± 4e-05 kPa
754 K	0.000324 ± 8.1e-05 kPa and 0.000209 ± 5.2e-05 kPa
754.5 K	0.000372 ± 9.3e-05 kPa and 0.00017 ± 4.3e-05 kPa
755 K	0.000178 ± 4.5e-05 kPa
756 K	0.000288 ± 7.2e-05 kPa and 0.000417 ± 0.0001 kPa and 0.000302 ± 7.6e-05 kPa
756.5 K	0.000302 ± 7.6e-05 kPa
757 K	0.000302 ± 7.6e-05 kPa
757.5 K	0.000251 ± 6.3e-05 kPa
758 K	0.000195 ± 4.9e-05 kPa
759 K	0.000257 ± 6.4e-05 kPa
760 K	0.000234 ± 5.9e-05 kPa and 0.000219 ± 5.5e-05 kPa
760.5 K	0.000363 ± 9.1e-05 kPa
763 K	0.000513 ± 0.00013 kPa [middle of 4 runs]
764 K	0.000234 ± 5.9e-05 kPa
765 K	0.000347 ± 8.7e-05 kPa
765.5 K	0.000302 ± 7.6e-05 kPa
766 K	0.000468 ± 0.00012 kPa [middle of 5 runs]
766.5 K	0.000457 ± 0.00011 kPa
769 K	0.000741 ± 0.00018 kPa and 0.000437 ± 0.00011 kPa
770.5 K	0.000447 ± 0.00011 kPa
771.5 K	0.000363 ± 9.1e-05 kPa
772 K	0.000537 ± 0.00013 kPa and 0.000407 ± 0.0001 kPa
773 K	0.000417 ± 0.0001 kPa
774 K	0.000891 ± 0.00022 kPa and 0.000427 ± 0.00011 kPa
775 K	0.000646 ± 0.00016 kPa
777.5 K	0.000603 ± 0.00015 kPa
778 K	0.000525 ± 0.00013 kPa and 0.000501 ± 0.00013 kPa
779 K	0.000724 ± 0.00018 kPa
781 K	0.00055 ± 0.00014 kPa
783 K	0.000646 ± 0.00016 kPa
783.5 K	0.000933 ± 0.00023 kPa
784 K	0.000813 ± 0.0002 kPa
785 K	0.000646 ± 0.00016 kPa
786 K	0.001 ± 0.00025 kPa
788 K	0.00145 ± 0.00036 kPa
789 K	0.000813 ± 0.0002 kPa
789.5 K	0.00102 ± 0.00026 kPa
791 K	0.000977 ± 0.00024 kPa
792 K	0.00129 ± 0.00032 kPa
793 K	0.00129 ± 0.00032 kPa
794 K	0.00105 ± 0.00026 kPa
798 K	0.00148 ± 0.00037 kPa and 0.00123 ± 0.00031 kPa and 0.00126 ± 0.00032 kPa
799 K	0.00234 ± 0.00059 kPa
801 K	0.00186 ± 0.00047 kPa and 0.0017 ± 0.00043 kPa
802 K	0.00155 ± 0.00039 kPa
803 K	0.00166 ± 0.00042 kPa
803.5 K	0.00186 ± 0.00047 kPa
807 K	0.00209 ± 0.00052 kPa
808 K	0.00295 ± 0.00074 kPa
810.5 K	0.0024 ± 0.0006 kPa
811 K	0.00275 ± 0.00069 kPa and 0.00209 ± 0.00052 kPa
815 K	0.00295 ± 0.00074 kPa
818 K	0.00389 ± 0.00097 kPa
821 K	0.0038 ± 0.00095 kPa
823 K	0.00617 ± 0.0015 kPa
828 K	0.00562 ± 0.0014 kPa
